Experimental data reported in patent US20260028365A1 (BIOGEN MA INC., priority 2022, published 2026).

What follows are molecules tested against Tyk2 (Homo sapiens (Human), UniProt P29597) (assay: pSTAT4 Cell Assay (MSD, NK92 cells)). Conditions: not given.
Format: cell-based

Chain of Tyk2 (P29597 whole entry): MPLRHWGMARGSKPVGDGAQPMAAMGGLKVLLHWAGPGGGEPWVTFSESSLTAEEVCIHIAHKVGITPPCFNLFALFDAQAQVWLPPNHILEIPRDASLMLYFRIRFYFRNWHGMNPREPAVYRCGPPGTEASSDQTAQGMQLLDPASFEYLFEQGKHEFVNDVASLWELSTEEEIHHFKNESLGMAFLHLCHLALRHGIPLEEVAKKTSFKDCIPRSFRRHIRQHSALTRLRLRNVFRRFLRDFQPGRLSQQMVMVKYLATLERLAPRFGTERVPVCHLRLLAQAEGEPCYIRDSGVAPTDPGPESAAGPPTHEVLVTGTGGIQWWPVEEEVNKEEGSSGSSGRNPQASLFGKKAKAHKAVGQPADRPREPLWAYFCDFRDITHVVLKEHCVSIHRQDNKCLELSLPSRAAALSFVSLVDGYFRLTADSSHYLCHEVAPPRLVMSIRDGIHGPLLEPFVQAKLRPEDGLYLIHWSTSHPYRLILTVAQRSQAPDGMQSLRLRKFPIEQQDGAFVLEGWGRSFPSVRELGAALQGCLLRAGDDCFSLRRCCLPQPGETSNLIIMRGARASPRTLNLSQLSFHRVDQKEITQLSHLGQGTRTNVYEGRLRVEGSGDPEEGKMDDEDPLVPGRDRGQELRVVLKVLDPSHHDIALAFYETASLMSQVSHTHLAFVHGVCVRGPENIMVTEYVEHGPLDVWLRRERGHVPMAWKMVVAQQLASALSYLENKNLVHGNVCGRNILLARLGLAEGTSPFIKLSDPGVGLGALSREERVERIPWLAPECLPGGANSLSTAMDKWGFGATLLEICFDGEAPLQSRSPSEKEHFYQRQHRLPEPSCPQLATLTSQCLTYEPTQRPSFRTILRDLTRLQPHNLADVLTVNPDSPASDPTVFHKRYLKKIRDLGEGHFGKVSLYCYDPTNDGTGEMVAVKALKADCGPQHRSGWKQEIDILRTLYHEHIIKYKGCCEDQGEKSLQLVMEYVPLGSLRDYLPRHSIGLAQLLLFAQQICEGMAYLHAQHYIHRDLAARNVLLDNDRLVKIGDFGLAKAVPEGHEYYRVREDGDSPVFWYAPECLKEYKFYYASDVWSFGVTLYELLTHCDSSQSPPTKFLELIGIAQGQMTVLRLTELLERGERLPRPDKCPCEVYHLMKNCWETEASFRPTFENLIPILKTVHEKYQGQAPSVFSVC

| IC50 [nM] | SMILES |
| --- | --- |
| ≤ 10 | CCc1cc(Nc2cc(NC(C)=O)ncc2-c2ccc(CN3C[C@@H]4C[C@H]3CO4)cn2)nc(C(C)(F)F)n1 [Example 902, N-(5-(((1S,4S)-2-oxa-5-azabicyclo[2.2.1]heptan-5-yl)methyl)-4′-((2-(1,1-difluoroethyl)-6-ethylpyrimidin-4-yl)amino)-[2,3′-bipyridin]-6′-yl)acetamide] |
| 10 to 100 | CCc1cc(Nc2cc(NC(C)=O)ncc2-c2nccc(CN3C[C@H]4C[C@@H]3CO4)n2)nc(C(C)(F)F)n1 [Example 907, N-(5-(4-(((1R,4R)-2-oxa-5-azabicyclo[2.2.1]heptan-5-yl)methyl)pyrimidin-2-yl)-4-((2-(1,1-difluoroethyl)-6-ethylpyrimidin-4-yl)amino)pyridin-2-yl)acetamide] |
| ≤ 10 | CCc1cc(Nc2cc(NC(C)=O)ncc2-c2ncc(CN3CCCC3)cc2F)nc(C(C)(F)F)n1 [Example 904, N-(4′-((2-(1,1-difluoroethyl)-6-ethylpyrimidin-4-yl)amino)-3-fluoro-5-(pyrrolidin-1-ylmethyl)-[2,3′-bipyridin]-6′-yl)acetamide] |

| SMILES | IC50 [nM] |
| --- | --- |
| CC(=O)Nc1cc(Nc2ccnc(C(C)(F)F)n2)c(-c2cnc(OC(F)F)cn2)cn1 [Example 854, N-(4-((2-(1,1-difluoroethyl)pyrimidin-4-yl)amino)-5-(5-(difluoromethoxy)pyrazin-2-yl)pyridin-2-yl)acetamide] | 10 to 100 |

Same assay, conditions: MSD

| IC50 [nM] | SMILES |
| --- | --- |
| 10 to 100 | CC(=O)Nc1cc(Nc2ccnc(C(C)(F)F)n2)c(-c2nc3c(s2)CN(C)C3)cn1 [Example 284, N-(4-((2-(1,1-difluoroethyl)pyrimidin-4-yl)amino)-5-(5-methyl-5,6-dihydro-4H-pyrrolo[3,4-d]thiazol-2-yl)pyridin-2-yl)acetamide] |
| 10 to 100 | COc1ccnc(COc2cnc(NC(C)=O)cc2Nc2cc(C)nc(C(C)(F)F)n2)c1 [Example 128, N-(4-((2-(1,1-difluoroethyl)-6-methylpyrimidin-4-yl)amino)-5-((4-methoxypyridin-2-yl)methoxy)pyridin-2-yl)acetamide] |
| 10 to 100 | COc1cnc(NC(C)=O)cc1Nc1cc(-c2cc(F)c3nn(C)cc3c2)nc(C(C)(F)F)n1 [Example 396, N-(4-((2-(1,1-difluoroethyl)-6-(7-fluoro-2-methyl-2H-indazol-5-yl)pyrimidin-4-yl)amino)-5-methoxypyridin-2-yl)acetamide] |
| ≤ 10 | CC(=O)Nc1cc(Nc2cc(C)nc(C(C)(F)F)n2)c(OC[C@H]2COC(C)(C)O2)cn1 [Example 124, (S)-N-(4-((2-(1,1-difluoroethyl)-6-methylpyrimidin-4-yl)amino)-5-((2,2-dimethyl-1,3-dioxolan-4-yl)methoxy)pyridin-2-yl)acetamide] |
| ≥ 1000 | CC(=O)Nc1cc(Nc2cc(C(C)C)nc(C(C)(F)F)n2)c(-c2ccn(C)n2)cn1 [Example 205, N-(4-((2-(1,1-difluoroethyl)-6-isopropylpyrimidin-4-yl)amino)-5-(1-methyl-1H-pyrazol-3-yl)pyridin-2-yl)acetamide] |
| 10 to 100 | CC(=O)Nc1cc(Nc2cc(C)nc(C(C)(F)F)n2)c(OCCC(F)F)cn1 [Example 104, N-(4-((2-(1,1-difluoroethyl)-6-methylpyrimidin-4-yl)amino)-5-(3,3-difluoropropoxy)pyridin-2-yl)acetamide] |
| 10 to 100 | CC(=O)Nc1cc(Nc2cc(C)nc(C(C)(F)F)n2)c(OCc2cc(C)no2)cn1 [Example 121, N-(4-((2-(1,1-difluoroethyl)-6-methylpyrimidin-4-yl)amino)-5-((3-methylisoxazol-5-yl)methoxy)pyridin-2-yl)acetamide] |

| SMILES | IC50 [nM] |
| --- | --- |
| CC(=O)Nc1cc(Nc2ccnc(C(C)(F)F)n2)c(-c2cccc(C(C)(C)C#N)n2)cn1 [Example 653, N-(6-(2-cyanopropan-2-yl)-4′-((2-(1,1-difluoroethyl)pyrimidin-4-yl)amino)-[2,3′-bipyridin]-6′-yl)acetamide] | 10 to 100 |
